# Like-named read-outs stand apart in the source and are kept apart here.
# Tests used:
# [1] = system: bell pepper; experiment: Bell pepper seedlings in pots sprayed: height, fresh and dry weight (Example 5); type: in vivo
# Experimental: Pepper seedlings were planted into pots with peat substrate (P9 pots having 0,5 l). Pots were placed in greenhouse and cultivated for a 1 month. […] Plants treated with water only were the untreated control. During the course of the experiment, the height of the plants was measured, and at the end the fresh and dry weight of the aboveground part was evaluated.
# [2] = system: broccoli; experiment: Broccoli seedlings in pots sprayed: height, fresh and dry weight (Example 4); type: in vivo
# Experimental: Broccoli seedling were planted into pots with peat substrate (P9 pots having 0.5 l). Pots were placed in greenhouse and cultivated for a 1 month. […] 2-fluoroethyl(trimethyl)ammonium benzo[1,2,3]thiadiazole-7-carboxylate; 3. 2-bromoethyl(trimethyl)ammonium benzo[1,2,3]thiadiazole-7-carboxylate; 4. 2-chloroethyl(trimethyl)ammonium benzo[1,2,3]thiadiazole-7-carboxylate; 5. 2-iodoethyl(trimethyl)ammonium benzo[1,2,3]thiadiazole-7-carboxylate used at a concentration of 30 mg/L and 6. 2-hydroxyethyl(trimethyl)ammonium 3-chlorosalicylate (tested also at a concentration of 50 mg/L); 7. 3-chlorosalicylate 2-fluoroethyl(trimethyl)ammonium; 8. 3-chlorosalicylate 2-bromoethyl(trimethyl)ammonium; 9. 3-chlorosalicylate 2-chloroethyl(trimethyl)ammonium; 10. 3-chlorosalicylate 2-iodoethyl(trimethyl)ammonium used at a concentration of 80 mg/L. Plants were sprayed with tested substances three times at 10-day intervals. Plants treated with water only were the untreated control. During the course of the experiment, the height of the plants was measured, and at the end the fresh and dry weight of the aboveground part was evaluated. The experiment was conducted in 4 repetitions with 5 plants in each (a total of 20 plants per each combination).
# [3] = system: winter wheat; details: for increase in calcium uptake / increase in gluten content of wheat grain / increase in magnesium uptake / increase in nitrogen uptake / increase in phosphorus uptake / increase in potassium uptake / increase in protein content of wheat grain / fresh weight of aboveground part higher than control / dry root mass higher than control / fresh root mass higher than control / dry weight of aboveground part higher than control / more aboveground biomass, BBCH 55 treatment compared to control / more aboveground biomass, BBCH 55 treatment compared to plants sprayed at an earlier stage / more root biomass, BBCH 55 treatment compared to control / more root biomass, BBCH 55 treatment compared to plants sprayed at an earlier stage: 80 mg/L, benzothiadiazole salt 30 mg/L; for SPAD chlorophyll readings versus control: first term, stimulant at BBCH 32, with or without fungicide; for more aboveground biomass, BBCH 55 treatment compared to control / more aboveground biomass, BBCH 55 treatment compared to plants sprayed at an earlier stage / more root biomass, BBCH 55 treatment compared to control / more root biomass, BBCH 55 treatment compared to plants sprayed at an earlier stage: last sampling date, late milk; for fresh and dry root weight versus other experimental facilities / fresh and dry matter yields versus other experimental facilities: second sampling date; for fresh and dry matter yields versus other experimental facilities: end of heading; for SPAD chlorophyll readings: second term, stimulant at BBCH 32 without fungicide versus other objects; for chlorophyll content of wheat leaves versus control: third term, with or without fungicide
# Experimental: The experiment was established using the long strip method, in four repetitions Gross area of each plot was 48 m^2, while the harvest area was 23.25 m^2 net. Following variants of treatment were tested: • 1. Control—no stimulant application, standard fungicide programme • 2. Stimulant application at BBCH 32, standard fungicide programme • 3. Stimulant application at BBCH 32, no fungicide application • 4. Stimulant application at BBCH 55 and 10-12 days later, standard fungicide programme • 5. […] In this experiment, standard NPK fertilization was applied, using both bulk and liquid fertilizers.
# The experiment was established using the long strip method, in four repetitions Gross area of each plot was 48 m2, while the harvest area was 23.25 m2 net. Following variants of treatment were tested: • 1. Control—no stimulant application, standard fungicide programme, • 2. Stimulant application at BBCH 32, standard fungicide programme • 3. Stimulant application at BBCH 32, no fungicide application • 4. Stimulant application at BBCH 55 and 10-12 days later, standard fungicide programme • 5. […] In the experiment, uniform NPK fertilization was applied, using both bulk and liquid fertilizers.
# [4] = 3-chlorosalicylate 80 mg/L, benzothiadiazole salt 30 mg/L
# [5] = BBCH 32, standard fungicide protection
# [6] = BBCH 55, standard fungicide protection
# [7] = first sampling date (beginning of shooting), first of two sprayed objects (with / without fungicide, respectively)
# [8] = first sampling date, first of two sprayed objects
# [9] = first sampling date, second of two sprayed objects (with / without fungicide, respectively)
# [10] = first sampling date, second of two sprayed objects
smiles,measurement,setting,value
C[N+](C)(C)CCO.O=C([O-])c1cccc(Cl)c1O [choline 3-chlorosalicylate],Average dry mass,[1]; [4],12.2 b g
same,Average fresh mass,[1]; [4],85.7 b g
same,"Average plant height, initial height, before first treatment",[1]; [4],41.5 a mm
same,"Average plant height, second treatment",[1]; [4],161.8 c mm
same,"Average plant height, third treatment",[1]; [4],221.5 b mm
same,Plant height increase,[1]; [4],180.0 b mm
same,Average dry mass,[2]; 50 mg/L,0.6 b g
same,Average fresh mass,[2]; 50 mg/L,6.8 b g
same,"Average plant height, initial height, before first treatment",[2]; 50 mg/L,37.6 b mm
same,"Average plant height, second treatment",[2]; 50 mg/L,146.4 a mm
same,"Average plant height, third treatment",[2]; 50 mg/L,178.5 a mm
same,Plant height increase,[2]; 50 mg/L,140.9 a mm
same,Average dry mass,[2]; [4],0.6 b g
same,Average fresh mass,[2]; [4],6.7 b g
same,"Average plant height, initial height, before first treatment",[2]; [4],36.5 a mm
same,"Average plant height, second treatment",[2]; [4],146.0 a mm
same,"Average plant height, third treatment",[2]; [4],179.5 a mm
same,Plant height increase,[2]; [4],143.0 a mm
same,increase in calcium uptake,[3]; [5],4%
same,increase in gluten content of wheat grain,[3]; [5],8%
same,increase in magnesium uptake,[3]; [5],4%
same,increase in nitrogen uptake,[3]; [5],7%
same,increase in phosphorus uptake,[3]; [5],8%
same,increase in potassium uptake,[3]; [5],6%
same,increase in protein content of wheat grain,[3]; [5],10%
same,increase in calcium uptake,"[3]; BBCH 32, stimulant only",6%
same,increase in gluten content of wheat grain,"[3]; BBCH 32, stimulant only",7%
same,increase in magnesium uptake,"[3]; BBCH 32, stimulant only",5%
same,increase in nitrogen uptake,"[3]; BBCH 32, stimulant only",7%
same,increase in phosphorus uptake,"[3]; BBCH 32, stimulant only",9%
same,increase in potassium uptake,"[3]; BBCH 32, stimulant only",8%
same,increase in protein content of wheat grain,"[3]; BBCH 32, stimulant only",8%
same,increase in calcium uptake,[3]; [6],4%
same,increase in gluten content of wheat grain,[3]; [6],9%
same,increase in magnesium uptake,[3]; [6],5%
same,increase in nitrogen uptake,[3]; [6],14%
same,increase in phosphorus uptake,[3]; [6],12%
same,increase in potassium uptake,[3]; [6],6%
same,increase in protein content of wheat grain,[3]; [6],11%
same,increase in calcium uptake,"[3]; BBCH 55, without fungicide",5%
same,increase in gluten content of wheat grain,"[3]; BBCH 55, without fungicide",8%
same,increase in magnesium uptake,"[3]; BBCH 55, without fungicide",6%
same,increase in nitrogen uptake,"[3]; BBCH 55, without fungicide",16%
same,increase in phosphorus uptake,"[3]; BBCH 55, without fungicide",12%
same,increase in potassium uptake,"[3]; BBCH 55, without fungicide",5%
same,increase in protein content of wheat grain,"[3]; BBCH 55, without fungicide",10%
same,fresh weight of aboveground part higher than control,[3]; [7],12%
same,dry root mass higher than control,[3]; first sampling date,19%
same,fresh root mass higher than control,[3]; first sampling date,15%
same,dry weight of aboveground part higher than control,[3]; [8],11%
same,fresh weight of aboveground part higher than control,[3]; [9],17%
same,dry weight of aboveground part higher than control,[3]; [10],16%
same,SPAD chlorophyll readings versus control,[3],significantly higher
same,"more aboveground biomass, BBCH 55 treatment compared to control",[3],31%
same,"more aboveground biomass, BBCH 55 treatment compared to plants sprayed at an earlier stage",[3],12%
same,"more root biomass, BBCH 55 treatment compared to control",[3],25%
same,"more root biomass, BBCH 55 treatment compared to plants sprayed at an earlier stage",[3],17%
same,fresh and dry root weight versus other experimental facilities,[3],comparable
same,fresh and dry matter yields versus other experimental facilities,[3],comparable
same,SPAD chlorophyll readings,[3],higher
same,chlorophyll content of wheat leaves versus control,[3],significantly higher
C[N+](C)(C)CCO.O=C([O-])c1cccc2nnsc12,Average dry mass,[1]; 20 mg/L,13.3 c g
same,Average fresh mass,[1]; 20 mg/L,94.6 c g
same,"Average plant height, initial height, before first treatment",[1]; 20 mg/L,43.5 b mm
same,"Average plant height, second treatment",[1]; 20 mg/L,150.8 b mm
same,"Average plant height, third treatment",[1]; 20 mg/L,226.6 c mm
same,Plant height increase,[1]; 20 mg/L,183.1 c mm
same,Average dry mass,[1]; [4],15.6 g·days
same,Average fresh mass,[1]; [4],115.5 g·days
same,"Average plant height, initial height, before first treatment",[1]; [4],39.9 a mm
same,"Average plant height, second treatment",[1]; [4],142.9 a mm
same,"Average plant height, third treatment",[1]; [4],270.8 d mm
same,Plant height increase,[1]; [4],230.9 d mm
same,Average dry mass,[2]; [4],0.7 b g
same,Average fresh mass,[2]; [4],7.8 c g
same,"Average plant height, initial height, before first treatment",[2]; [4],39.2 c mm
same,"Average plant height, second treatment",[2]; [4],187.2 b mm
same,"Average plant height, third treatment",[2]; [4],215.7 b mm
same,Plant height increase,[2]; [4],176.5 b mm
same,number of leaves developed,"[2]; FIG. 2, treated once, 5 mg/L, control plant developed 3 leaves",4
same,increase in calcium uptake,[3]; [5],7%
same,increase in gluten content of wheat grain,[3]; [5],9%
same,increase in magnesium uptake,[3]; [5],8%
same,increase in nitrogen uptake,[3]; [5],7%
same,increase in phosphorus uptake,[3]; [5],9%
same,increase in potassium uptake,[3]; [5],7%
same,increase in protein content of wheat grain,[3]; [5],12%
same,increase in calcium uptake,"[3]; BBCH 32, stimulant only",7%
same,increase in gluten content of wheat grain,"[3]; BBCH 32, stimulant only",8%
same,increase in magnesium uptake,"[3]; BBCH 32, stimulant only",9%
same,increase in nitrogen uptake,"[3]; BBCH 32, stimulant only",8%
same,increase in phosphorus uptake,"[3]; BBCH 32, stimulant only",9%
same,increase in potassium uptake,"[3]; BBCH 32, stimulant only",8%
same,increase in protein content of wheat grain,"[3]; BBCH 32, stimulant only",11%
same,increase in calcium uptake,[3]; [6],12%
same,increase in gluten content of wheat grain,[3]; [6],10%
same,increase in magnesium uptake,[3]; [6],11%
same,increase in nitrogen uptake,[3]; [6],12%
same,increase in phosphorus uptake,[3]; [6],11%
same,increase in potassium uptake,[3]; [6],7%
same,increase in protein content of wheat grain,[3]; [6],12%
same,increase in calcium uptake,"[3]; BBCH 55, without fungicide",8%
same,increase in gluten content of wheat grain,"[3]; BBCH 55, without fungicide",9%
same,increase in magnesium uptake,"[3]; BBCH 55, without fungicide",10%
same,increase in nitrogen uptake,"[3]; BBCH 55, without fungicide",15%
same,increase in phosphorus uptake,"[3]; BBCH 55, without fungicide",11%
same,increase in potassium uptake,"[3]; BBCH 55, without fungicide",6%
same,increase in protein content of wheat grain,"[3]; BBCH 55, without fungicide",11%
same,fresh weight of aboveground part higher than control,[3]; [7],11%
same,dry root mass higher than control,[3]; first sampling date,14%
same,fresh root mass higher than control,[3]; first sampling date,12%
same,dry weight of aboveground part higher than control,[3]; [8],10%
same,fresh weight of aboveground part higher than control,[3]; [9],14%
same,dry weight of aboveground part higher than control,[3]; [10],14%
same,SPAD chlorophyll readings versus control,[3],significantly higher
same,"more aboveground biomass, BBCH 55 treatment compared to control",[3],30%
same,"more aboveground biomass, BBCH 55 treatment compared to plants sprayed at an earlier stage",[3],13%
same,"more root biomass, BBCH 55 treatment compared to control",[3],21%
same,"more root biomass, BBCH 55 treatment compared to plants sprayed at an earlier stage",[3],14%
same,fresh and dry root weight versus other experimental facilities,[3],comparable
same,fresh and dry matter yields versus other experimental facilities,[3],comparable
same,SPAD chlorophyll readings,[3],highest
same,chlorophyll content of wheat leaves versus control,[3],significantly higher
